Measured values published in patent US9440982B2 (Eolas Therapeutics, Inc., priority 2012, dated 2016).

Legend:
OX1 = target: T1, OX1 (Homo sapiens, UniProt O43613); assay: Orexin receptor cell-based functional assay, [Ca2+]i by FLIPR, CHO-OX1 cells; conditions: CHO-OX1 cells, [Ca2+]i by FLIPR, antagonist dose-range 0.1 nM-10 μM, EC90 of OXA; read-out: OX1
T1 construct: expressed in transfected cells; host or cells: CHO (CHO-OX1, kept under selection antibiotic)
T1 sequence (O43613 1-425): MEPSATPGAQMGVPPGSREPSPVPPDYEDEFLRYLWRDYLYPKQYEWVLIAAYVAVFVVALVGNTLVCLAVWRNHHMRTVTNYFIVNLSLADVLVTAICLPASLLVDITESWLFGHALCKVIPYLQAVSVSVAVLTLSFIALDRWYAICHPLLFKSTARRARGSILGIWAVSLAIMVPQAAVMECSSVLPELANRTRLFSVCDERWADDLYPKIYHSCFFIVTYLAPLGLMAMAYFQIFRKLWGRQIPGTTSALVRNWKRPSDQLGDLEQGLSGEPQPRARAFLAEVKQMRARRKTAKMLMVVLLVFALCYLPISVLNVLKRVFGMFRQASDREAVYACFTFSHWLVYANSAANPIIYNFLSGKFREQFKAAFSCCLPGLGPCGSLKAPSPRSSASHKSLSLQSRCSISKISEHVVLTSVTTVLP
In short: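 Antagonist mode FLIPR calcium read in CHO-OX1 and CHO-OX2 lines. Test compounds, dosed 0.1 nM-10 μM, preincubated 30 min after 37° C dye loading with 2.5 mM probenecid (calcium4 for 30 min or calcium6 for 2 h).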

CYP3A4 = target: T2, CYP3A4 (Homo sapiens, UniProt P08684); assay: Cytochrome P450 inhibition assay (midazolam hydroxylation); type: in vitro ADME; conditions: human, human liver microsomes, probe midazolam (hydroxylation to 1′-hydroxymidazolam), 10 μM test compound, midazolam at approximately its Km
T2 construct: pre-incubated with human liver microsomes and NADPH; from tissue; host or cells: human liver microsomes
T2 sequence (P08684 whole entry): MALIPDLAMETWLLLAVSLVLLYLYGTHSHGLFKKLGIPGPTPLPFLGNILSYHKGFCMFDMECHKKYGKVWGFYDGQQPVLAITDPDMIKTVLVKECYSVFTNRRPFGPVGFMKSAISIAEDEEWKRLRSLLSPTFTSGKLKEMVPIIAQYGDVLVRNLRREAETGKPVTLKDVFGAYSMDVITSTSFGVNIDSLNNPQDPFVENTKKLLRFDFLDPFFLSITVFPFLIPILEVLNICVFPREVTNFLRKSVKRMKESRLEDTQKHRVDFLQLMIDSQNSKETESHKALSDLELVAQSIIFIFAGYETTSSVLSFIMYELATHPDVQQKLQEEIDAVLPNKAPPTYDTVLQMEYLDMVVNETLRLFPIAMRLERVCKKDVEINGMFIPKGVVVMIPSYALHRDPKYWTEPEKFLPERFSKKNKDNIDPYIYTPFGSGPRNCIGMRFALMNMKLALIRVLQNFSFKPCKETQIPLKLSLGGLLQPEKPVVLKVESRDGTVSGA
In short: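 Percent inhibition of midazolam 1′-hydroxylation by 10 μM compound was measured, midazolam dosed at about Km. Time-dependent inhibition was probed by a 30 min preincubation of compound with human liver microsomes and NADPH ahead of substrate, compared against samples without preincubation.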

SMILES	IC50 (OX1) [nM]	inhibition at 10 µM (CYP3A4) [%]
Cc1ccc(-c2ccccn2)c(C(=O)N2CCC[C@@H](C)[C@H]2CNc2nc3cc(Cl)ccc3o2)n1 [Example A199, ((2S,3R)-2-(((5-Chlorobenzo[d]oxazol-2-yl)amino)methyl)-3-methylpiperidin-1-yl)(6′-methyl-[2,3′-bipyridin]-2′-yl)methanone]	15	62
C[C@@H]1CCCN(C(=O)c2cc(Cl)ccc2-c2ncccn2)[C@@H]1CNc1ncc(Cl)cn1 [Example A202, (5-Chloro-2-(pyrimidin-2-yl)phenyl)((2S,3R)-2-(((5-chloropyrimidin-2-yl)amino)methyl)-3-methylpiperidin-1-yl)methanone]	18	44
C[C@@H]1CCCN(C(=O)c2cc(Cl)ccc2-c2ncccn2)[C@@H]1CNc1ccc(Cl)cn1 [Example A203, (5-Chloro-2-(pyrimidin-2-yl)phenyl)((2S,3R)-2-(((5-chloropyridin-2-yl)amino)methyl)-3-methylpiperidin-1-yl)methanone]	21	70
Cc1ccc(-c2ncccn2)c(C(=O)N2CCC[C@@H](C)[C@H]2CNc2nc3cc(Cl)ccc3o2)c1 [Example A205, ((2S,3R)-2-(((5-Chlorobenzo[d]oxazol-2-yl)amino)methyl)-3-methylpiperidin-1-yl)(5-methyl-2-(pyrimidin-2-yl)phenyl)methanone]	11	72
C[C@@H]1CCCN(C(=O)c2cc(F)ccc2-n2nccn2)[C@@H]1CNc1ccc(Cl)cn1 [Example A209, ((2S,3R)-2-(((5-Chloropyridin-2-yl)amino)methyl)-3-methylpiperidin-1-yl)(5-fluoro-2-(2H-1,2,3-triazol-2-yl)phenyl)methanone]	45	69
C[C@@H]1CCCN(C(=O)c2ccccc2-n2nccn2)[C@@H]1CNc1nc2ccccc2o1 [Example A218, (2-(2H-1,2,3-Triazol-2-yl)phenyl)((2S,3R)-2-((benzo[d]oxazol-2-ylamino)methyl)-3-methylpiperidin-1-yl)methanone]	130	75
C[C@@H]1CCCN(C(=O)c2cc(F)ccc2-n2nccn2)[C@@H]1CNc1ncc(Cl)cn1 [Example A221, ((2S,3R)-2-(((5-Chloropyrimidin-2-yl)amino)methyl)-3-methylpiperidin-1-yl)(5-fluoro-2-(2H-1,2,3-triazol-2-yl)phenyl)methanone]	32	53
Cc1ccc(-c2cccnc2)c(C(=O)N2CCC[C@@H](C)[C@H]2CNc2ncc(C(F)(F)F)cn2)n1 [Example A223, ((2S,3R)-3-Methyl-2-(((5-(trifluoromethyl)pyrimidin-2-yl)amino)methyl)piperidin-1-yl)(6-methyl-[3,3′-bipyridin]-2-yl)methanone]	37	93
C[C@@H]1CCCN(C(=O)c2cc(F)ccc2-c2ncccn2)[C@@H]1CNc1ccc(C(F)(F)F)cn1 [Example A228, (5-Fluoro-2-(pyrimidin-2-yl)phenyl)((2S,3R)-3-methyl-2-(((5-(trifluoromethyl)pyridin-2-yl)amino)methyl)piperidin-1-yl)methanone]	1	72

Further compounds by falling IC50 (OX1), results first:

IC50 (OX1) [nM]	inhibition at 10 µM (CYP3A4) [%]	SMILES
2600	84	C[C@@H]1CCCN(C(=O)c2ccccc2-n2nccn2)[C@@H]1CNc1nc2cc(Cl)ccc2o1 [Example A219, (2-(2H-1,2,3-Triazol-2-yl)phenyl)((2S,3R)-2-(((5-chlorobenzo[d]oxazol-2-yl)amino)methyl)-3-methylpiperidin-1-yl)methanone]
200	59	C[C@@H]1CCCN(C(=O)c2cc(F)ccc2-n2nccn2)[C@@H]1CNc1ccc(C(F)(F)F)nn1 [Example A208, (5-Fluoro-2-(2H-1,2,3-triazol-2-yl)phenyl)((2S,3R)-3-methyl-2-(((6-(trifluoromethyl)pyridazin-3-yl)amino)methyl)piperidin-1-yl)methanone]
54	73	C[C@@H]1CCCN(C(=O)c2cc(Cl)ccc2-c2ncccn2)[C@@H]1CNc1ccc(C(F)(F)F)nn1 [Example A200, (5-Chloro-2-(pyrimidin-2-yl)phenyl)((2S,3R)-3-methyl-2-(((6-(trifluoromethyl)pyridazin-3-yl)amino)methyl)piperidin-1-yl)methanone]
11	68	Cc1ccc(-n2nccn2)c(C(=O)N2CCC[C@@H](C)[C@H]2CNc2ncc3cc(C)ccc3n2)c1 [Example A220, ((2S,3R)-3-Methyl-2-(((6-methylquinazolin-2-yl)amino)methyl)piperidin-1-yl)(5-methyl-2-(2H-1,2,3-triazol-2-yl)phenyl)methanone]
7	83	Cc1ccc(-c2cccnn2)c(C(=O)N2CCC[C@@H](C)[C@H]2CNc2ccc(C(F)(F)F)cn2)c1 [Example A197, ((2S,3R)-3-methyl-2-(((5-(trifluoromethyl)pyridin-2-yl)amino)methyl)piperidin-1-yl)(5-methyl-2-(pyridazin-3-yl)phenyl)methanone]
6	58	Cc1ccc(-c2ncccn2)c(C(=O)N2CCC[C@@H](C)[C@H]2CNc2nc3cc(F)ccc3o2)c1 [Example A206, ((2S,3R)-2-(((5-Fluorobenzo[d]oxazol-2-yl)amino)methyl)-3-methylpiperidin-1-yl)(5-methyl-2-(pyrimidin-2-yl)phenyl)methanone]
5	49	Cc1ccc(-c2ncccn2)c(C(=O)N2CCC[C@@H](C)[C@H]2CNc2ncc(C(F)(F)F)cn2)c1 [Example A212, ((2S,3R)-3-Methyl-2-(((5-(trifluoromethyl)pyrimidin-2-yl)amino)methyl)piperidin-1-yl)(5-methyl-2-(pyrimidin-2-yl)phenyl)methanone]
4	38	C[C@@H]1CCCN(C(=O)c2cc(Cl)ccc2-c2ncccn2)[C@@H]1CNc1ncc(C(F)(F)F)cn1 [Example A201, (5-Chloro-2-(pyrimidin-2-yl)phenyl)((2S,3R)-3-methyl-2-(((5-(trifluoromethyl)pyrimidin-2-yl)amino)methyl)piperidin-1-yl)methanone]
4	72	C[C@@H]1CCCN(C(=O)c2cc(F)ccc2-c2ncccn2)[C@@H]1CNc1ccc(Cl)cn1 [Example A229, ((2S,3R)-2-(((5-Chloropyridin-2-yl)amino)methyl)-3-methylpiperidin-1-yl)(5-fluoro-2-(pyrimidin-2-yl)phenyl)methanone]
3	60	Cc1ccc(-c2ncccn2)c(C(=O)N2CCC[C@@H](C)[C@H]2CNc2nc3ccccc3o2)c1 [Example A204, ((2S,3R)-2-((Benzo[d]oxazol-2-ylamino)methyl)-3-methylpiperidin-1-yl)(5-methyl-2-(pyrimidin-2-yl)phenyl)methanone]
2	59	C[C@@H]1CCCN(C(=O)c2cc(F)ccc2-c2ncccn2)[C@@H]1CNc1ncc(C(F)(F)F)cn1 [Example A227, (5-Fluoro-2-(pyrimidin-2-yl)phenyl)((2S,3R)-3-methyl-2-(((5-(trifluoromethyl)pyrimidin-2-yl)amino)methyl)piperidin-1-yl)methanone]
